Laboratory results reported in patent US8450357B2, “Compositions comprising an aryl pyrazole and/or a formamidine, methods and uses thereof” (Merial Limited, priority 2008, dated 2013).
Like-named read-outs stand apart in the source and are kept apart here.

Tests used:
[1] = tested on: adult Rhipicephalus sanguineus ticks; experiment: whole plant or invertebrate
Protocol: Fipronil was dissolved in acetone containing 0.019% of a mixture of Triton 152 and Triton 172 (1:3, v/v) and 0.4% DMSO to achieve the desired concentration. Dosages were serially diluted using this same formulation. For treatments containing amitraz, amitraz was added to the above solution to achieve the desired concentration. 0.5 ml of the solution was used to treat 20 ml scintillation vials containing a 0.125″ hole in the cap. […] Filter papers treated with this same solution were placed in the cap and bottom of the treated vial. Vials were capped and held over night at 24° C. and 95% RH after which 10 adult Rhipicephalus sanguineus ticks were placed into each vial. The vials were held under the same conditions mentioned above for the duration of the test. […]

Ctenocephalides felis = experiment: Study D: flea efficacy of Compound 1 and fipronil in cats; format: in vivo
Protocol: A fourth clinical study was conducted to determine the efficacy of topically administered Compound 1 and fipronil against induced infections of Ctenocephalides felis in cats. Twenty four cats (17 males, 7 females) were included in the study. Six replicates of four cats each were formed based on decreasing Day −5 flea counts. Within replicates, cats were randomly allocated to Treatment Groups 1, 2, 3 or 4, respectively, by using a die: Group 1—untreated (vehicle control); Group 2—Compound 1 (10 mg/kg); Group 3—Compound 1 (20 mg/kg); Group 4—fipronil (10 mg/kg). Treatment was performed by topical administration of the formulations in the midline of the neck, between the base of the skull and the shoulder blades in a single spot after parting the hair. Animals were observed hourly for approximately four hours following treatment.
The cats were infested with approximately 100 Ct. felis fleas each during acclimation on Day −6 for allocation purposes, and on Days −1, 14, 21, 28, 35 and 42 for treatment efficacy evaluation purposes. The fleas were removed by combing each cat approximately 24 hours following each infestation except for the Day −1 infestation which was followed by flea removal and count on Day 1 (˜48 hours following infestation).

[2] = tested on: Rhipicephalus sanguineus ticks; experiment: Study C: tick efficacy of Compound 1 and fipronil alone and with amitraz in dogs; format: in vivo
Protocol: The effectiveness of Compound 1 alone, fipronil alone, Compound 1 in combination with amitraz, or fipronil in combination with amitraz, when administered once as topical solutions to dogs against induced infestations of Rhipicephalus sanguineus and Ctenocephalides felis were determined in a third clinical study. Thirty-six beagles (18 males and 18 females) were selected for the study. Six replicates of 6 animals each were formed. Treatment Group 1 dogs were treated with a placebo. Treatment Groups 2, 3, 4, 5 and 6 received their respective treatments as a topical spot-on application once on Day 0. Each formulation included diethyleneglycol monoethyl ether (transcutol) as carrier. The Treatment Groups were: Treatment Group 2: fipronil at 0.1 mL/kg body weight (10 mg/kg); Treatment Group 3: Compound 1 at 0.1 mL/kg (10 mg/kg) body weight; Treatment Group 4: Compound 1 at 0.2 mL/kg (20 mg/kg) body weight; Treatment Group 5: Compound 1 at 0.1 mL/kg (10 mg/kg) body weight plus amitraz at 0.04 mL/kg (8 mg/kg) body weight; Treatment Group 6: fipronil at 0.1 mL/kg (10 mg/kg) body weight plus amitraz at 0.04 mL/kg (8 mg/kg) body weight. Treatment was applied by parting the hair and applying the formulation(s) directly onto the skin on one spot at the midline of the neck, except for Groups 4, 5 and 6 which were applied in approximately equal volumes on two spots, one spot between the base of the skull and the shoulder blades and the other at the front of the shoulder blades.
All dogs were infested with approximately 50 Rhipicephalus sanguineus ticks on Days −1, 7, 14, 21, 28, 35, 42, 49 and 56. Dogs were also infested with approximately 100 Ctenocephalides felis fleas on Days −1, 8, 15, 22, 29, 36, 43, 50 and 57. […] Tables 8 and 9 below show the % efficacy of formulations comprising fipronil at 0.1 ml/kg of body weight, Compound 1 at […], and fipronil and Compound 1 both at 10 ml/kg in combination with amitraz at 0.04 ml/kg of body weight compared to control group without active compounds. The percent reduction in flea counts of the treated groups with respect to the Control group over the study is shown in FIG. 14.

[3] = 4 h, read-out: 4 hour % Mortality Rep 1
[4] = 4 h, read-out: 4 hour % Mortality Rep 2
[5] = 4 h, read-out: 4 hour Avg. % Mortality
[6] = 24 h, read-out: 24 hour % Mortality Rep 1
[7] = 24 h, read-out: 24 hour % Mortality Rep 2
[8] = 24 h, read-out: 24 hour Avg. % Mortality
[9] = 48 h, read-out: 48 hour % Mortality Rep 1
[10] = 48 h, read-out: 48 hour % Mortality Rep 2
[11] = 48 h, read-out: 48 hour Avg. % Mortality

Cc1ccc(/N=C/N(C)/C=N/c2ccc(C)cc2C)c(C)c1 [Amitraz, amitraz]
mortality at 3.13 ppm [1, 3]: 0%
mortality at 6.25 ppm [1, 3]: 0%
mortality at 12.5 ppm [1, 3]: 0%
mortality at 25 ppm [1, 3]: 0%
mortality at 3.13 ppm [1, 4]: 0%
mortality at 6.25 ppm [1, 4]: 0%
mortality at 12.5 ppm [1, 4]: 0%
mortality at 25 ppm [1, 4]: 0%
mortality at 3.13 ppm [1, 5]: 0%
mortality at 6.25 ppm [1, 5]: 0%
mortality at 12.5 ppm [1, 5]: 0%
mortality at 25 ppm [1, 5]: 0%
mortality at 3.13 ppm [1, 6]: 0%
mortality at 6.25 ppm [1, 6]: 0%
mortality at 12.5 ppm [1, 6]: 0%
mortality at 25 ppm [1, 6]: 0%
mortality at 3.13 ppm [1, 7]: 0%
mortality at 6.25 ppm [1, 7]: 0%
mortality at 12.5 ppm [1, 7]: 0%
mortality at 25 ppm [1, 7]: 0%
mortality at 3.13 ppm [1, 8]: 0%
mortality at 6.25 ppm [1, 8]: 0%
mortality at 12.5 ppm [1, 8]: 0%
mortality at 25 ppm [1, 8]: 0%
mortality at 3.13 ppm [1, 9]: 0%
mortality at 6.25 ppm [1, 9]: 0%
mortality at 12.5 ppm [1, 9]: 0%
mortality at 25 ppm [1, 9]: 0%
mortality at 3.13 ppm [1, 10]: 0%
mortality at 6.25 ppm [1, 10]: 0%
mortality at 12.5 ppm [1, 10]: 0%
mortality at 25 ppm [1, 10]: 0%
mortality at 3.13 ppm [1, 11]: 0%
mortality at 6.25 ppm [1, 11]: 0%
mortality at 12.5 ppm [1, 11]: 0%
mortality at 25 ppm [1, 11]: 0%

Cc1c([S+]([O-])C(F)(Cl)Cl)c(C#N)nn1-c1c(F)cc(C(F)(F)F)cc1Cl (centres unmarked) [Compound 1, 3-cyano-1-(2-chloro-6-fluoro-4-trifluoromethylphenyl)-4-dichlorofluoromethylsulfinyl-5-methyl-1H-pyrazole]
% Efficacy against fleas (Ctenocephalides felis; Day 1, 10 mg/kg): 99.84%
% Efficacy against fleas (Ctenocephalides felis; Day 1, 20 mg/kg): 100%
% Efficacy against fleas (Ctenocephalides felis; Day 15, 10 mg/kg): 99.81%
% Efficacy against fleas (Ctenocephalides felis; Day 15, 20 mg/kg): 100%
% Efficacy against fleas (Ctenocephalides felis; Day 22, 10 mg/kg): 100%
% Efficacy against fleas (Ctenocephalides felis; Day 22, 20 mg/kg): 100%
% Efficacy against fleas (Ctenocephalides felis; Day 29, 10 mg/kg): 100%
% Efficacy against fleas (Ctenocephalides felis; Day 29, 20 mg/kg): 100%
% Efficacy against fleas (Ctenocephalides felis; Day 36, 10 mg/kg): 99.43%
% Efficacy against fleas (Ctenocephalides felis; Day 36, 20 mg/kg): 100%
% Efficacy against fleas (Ctenocephalides felis; Day 43, 10 mg/kg): 97.28%
% Efficacy against fleas (Ctenocephalides felis; Day 43, 20 mg/kg): 100%
% Efficacy (Tick Efficacy) ([2]; Day 1, 10 mg/kg): 88.1%
% Efficacy (Tick Efficacy) ([2]; Day 1, 20 mg/kg): 98.6%
% Efficacy (Tick Efficacy) ([2]; Day 2, 10 mg/kg): 96.8%
% Efficacy (Tick Efficacy) ([2]; Day 2, 20 mg/kg): 98.9%
% Efficacy (Tick Efficacy) ([2]; Day 8, 10 mg/kg): 93.5%
% Efficacy (Tick Efficacy) ([2]; Day 8, 20 mg/kg): 98.6%
% Efficacy (Tick Efficacy) ([2]; Day 9, 10 mg/kg): 97.7%
% Efficacy (Tick Efficacy) ([2]; Day 9, 20 mg/kg): 100%
% Efficacy (Tick Efficacy) ([2]; Day 15, 10 mg/kg): 98.5%
% Efficacy (Tick Efficacy) ([2]; Day 15, 20 mg/kg): 99.3%
% Efficacy (Tick Efficacy) ([2]; Day 16, 10 mg/kg): 100%
% Efficacy (Tick Efficacy) ([2]; Day 16, 20 mg/kg): 100%
% Efficacy (Tick Efficacy) ([2]; Day 23, 10 mg/kg): 98.4%
% Efficacy (Tick Efficacy) ([2]; Day 23, 20 mg/kg): 100%
% Efficacy (Tick Efficacy) ([2]; Day 30, 10 mg/kg): 99%
% Efficacy (Tick Efficacy) ([2]; Day 30, 20 mg/kg): 99.5%
% Efficacy (Tick Efficacy) ([2]; Day 37, 10 mg/kg): 94.3%
% Efficacy (Tick Efficacy) ([2]; Day 37, 20 mg/kg): 98.6%
% Efficacy (Tick Efficacy) ([2]; Day 44, 10 mg/kg): 92.4%
% Efficacy (Tick Efficacy) ([2]; Day 44, 20 mg/kg): 92.3%
% Efficacy (Tick Efficacy) ([2]; Day 51, 10 mg/kg): 84.7%
% Efficacy (Tick Efficacy) ([2]; Day 51, 20 mg/kg): 86.5%
% Efficacy (Tick Efficacy) ([2]; Day 58, 10 mg/kg): 83.1%
% Efficacy (Tick Efficacy) ([2]; Day 58, 20 mg/kg): 87.4%

N#Cc1nn(-c2c(Cl)cc(C(F)(F)F)cc2Cl)c(N)c1[S+]([O-])C(F)(F)F (centres unmarked) [fipronil, 5-amino-3-cyano-1-(2,6-dichloro-4-trifluoromethylphenyl)-4-trifluoromethylsulfinylpyrazole]
% Efficacy against fleas (Ctenocephalides felis; Day 1, 10 mg/kg): 97.96%
% Efficacy against fleas (Ctenocephalides felis; Day 15, 10 mg/kg): 100%
% Efficacy against fleas (Ctenocephalides felis; Day 22, 10 mg/kg): 100%
% Efficacy against fleas (Ctenocephalides felis; Day 29, 10 mg/kg): 95.59%
% Efficacy against fleas (Ctenocephalides felis; Day 36, 10 mg/kg): 99.24%
% Efficacy against fleas (Ctenocephalides felis; Day 43, 10 mg/kg): 97.81%
% Efficacy (Tick Efficacy) ([2]; Day 1, 10 mg/kg): 88.6%
% Efficacy (Tick Efficacy) ([2]; Day 2, 10 mg/kg): 90.9%
% Efficacy (Tick Efficacy) ([2]; Day 8, 10 mg/kg): 99.4%
% Efficacy (Tick Efficacy) ([2]; Day 9, 10 mg/kg): 100%
% Efficacy (Tick Efficacy) ([2]; Day 15, 10 mg/kg): 100%
% Efficacy (Tick Efficacy) ([2]; Day 16, 10 mg/kg): 100%
% Efficacy (Tick Efficacy) ([2]; Day 23, 10 mg/kg): 98.8%
% Efficacy (Tick Efficacy) ([2]; Day 30, 10 mg/kg): 100%
% Efficacy (Tick Efficacy) ([2]; Day 37, 10 mg/kg): 99%
% Efficacy (Tick Efficacy) ([2]; Day 44, 10 mg/kg): 98.2%
% Efficacy (Tick Efficacy) ([2]; Day 51, 10 mg/kg): 92.8%
% Efficacy (Tick Efficacy) ([2]; Day 58, 10 mg/kg): 82.7%
mortality at 0.025 ppm [1, 3]: 0%
mortality at 0.1 ppm [1, 3]: 0%
mortality at 0.4 ppm [1, 3]: 0%
mortality at 1.6 ppm [1, 3]: 0%
mortality at 6.25 ppm [1, 3]: 10%
mortality at 25 ppm [1, 3]: 80%
mortality at 0.025 ppm [1, 4]: 0%
mortality at 0.1 ppm [1, 4]: 0%
mortality at 0.4 ppm [1, 4]: 0%
mortality at 1.6 ppm [1, 4]: 0%
mortality at 6.25 ppm [1, 4]: 20%
mortality at 25 ppm [1, 4]: 90%
mortality at 0.025 ppm [1, 5]: 0%
mortality at 0.1 ppm [1, 5]: 0%
mortality at 0.4 ppm [1, 5]: 0%
mortality at 1.6 ppm [1, 5]: 0%
mortality at 6.25 ppm [1, 5]: 15%
mortality at 25 ppm [1, 5]: 85%
mortality at 0.025 ppm [1, 6]: 0%
mortality at 0.1 ppm [1, 6]: 0%
mortality at 0.4 ppm [1, 6]: 0%
mortality at 6.25 ppm [1, 6]: 100%
mortality at 25 ppm [1, 6]: 100%
mortality at 0.025 ppm [1, 7]: 0%
mortality at 0.1 ppm [1, 7]: 0%
mortality at 0.4 ppm [1, 7]: 0%
mortality at 1.6 ppm [1, 7]: 30%
mortality at 6.25 ppm [1, 7]: 90%
mortality at 25 ppm [1, 7]: 100%
mortality at 0.025 ppm [1, 8]: 0%
mortality at 0.1 ppm [1, 8]: 0%
mortality at 0.4 ppm [1, 8]: 0%
mortality at 1.6 ppm [1, 8]: 50%
mortality at 6.25 ppm [1, 8]: 95%
mortality at 25 ppm [1, 8]: 100%
mortality at 0.025 ppm [1, 9]: 0%
mortality at 0.1 ppm [1, 9]: 0%
mortality at 0.4 ppm [1, 9]: 0%
mortality at 1.6 ppm [1, 9]: 100%
mortality at 6.25 ppm [1, 9]: 100%
mortality at 25 ppm [1, 9]: 100%
mortality at 0.025 ppm [1, 10]: 0%
mortality at 0.1 ppm [1, 10]: 0%
mortality at 0.4 ppm [1, 10]: 0%
mortality at 1.6 ppm [1, 10]: 70%
mortality at 6.25 ppm [1, 10]: 90%
mortality at 25 ppm [1, 10]: 100%
mortality at 0.025 ppm [1, 11]: 0%
mortality at 0.1 ppm [1, 11]: 0%
mortality at 0.4 ppm [1, 11]: 0%
mortality at 1.6 ppm [1, 11]: 85%
mortality at 6.25 ppm [1, 11]: 95%
mortality at 25 ppm [1, 11]: 100%
